Measured values published in US10780090B2, “Heteroaryl compounds useful as inhibitors of SUMO activating enzyme” (Millennium Pharmaceuticals, Inc., priority 2014, dated 2020).

Target: recombinant human SAE enzyme (Homo sapiens (Human), UniProt Q9UBT2)
Experiment: SAE HTRF enzyme assay
Type: biochemical
Conditions: for inhibition at 0.111 µM / Percent Inhibition: Concentration 0.111 μM; for inhibition at 0.111 µM: read-out: Percent Inhibition; for IC50: class symbols A/B/C
Method in brief: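 HTRF read-out using Eu-cryptate anti-Flag and allophycocyanin anti-GST antibodies, added with EDTA stop buffer and read after 2 h at 24 °C. The preceding reaction ran 105 min at 24 °C: 0.11 nM recombinant SAE, 0.5 μM ATP, Sumo-Flag, Ubc9-GST, pH 7.5. Values given as single-concentration inhibition or IC50.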

recombinant human SAE enzyme, sequence (Q9UBT2 whole entry): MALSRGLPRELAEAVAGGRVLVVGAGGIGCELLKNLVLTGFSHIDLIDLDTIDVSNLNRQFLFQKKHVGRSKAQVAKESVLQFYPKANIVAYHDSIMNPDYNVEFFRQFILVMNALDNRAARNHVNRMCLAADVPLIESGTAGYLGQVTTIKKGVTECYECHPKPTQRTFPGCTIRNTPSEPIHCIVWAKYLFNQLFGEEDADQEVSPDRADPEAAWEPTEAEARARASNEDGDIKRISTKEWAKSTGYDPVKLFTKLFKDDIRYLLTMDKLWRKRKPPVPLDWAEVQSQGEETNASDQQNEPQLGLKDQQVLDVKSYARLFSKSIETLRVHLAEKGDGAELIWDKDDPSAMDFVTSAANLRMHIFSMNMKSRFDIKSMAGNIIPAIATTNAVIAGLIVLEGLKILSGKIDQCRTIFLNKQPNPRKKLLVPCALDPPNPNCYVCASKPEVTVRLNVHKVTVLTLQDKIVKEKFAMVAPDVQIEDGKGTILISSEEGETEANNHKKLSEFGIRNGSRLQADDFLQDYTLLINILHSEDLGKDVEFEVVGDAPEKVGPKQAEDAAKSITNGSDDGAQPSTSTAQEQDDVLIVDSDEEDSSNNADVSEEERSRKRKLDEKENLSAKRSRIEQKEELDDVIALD
recombinant human SAE enzyme, sequence (Q9UBE0 whole entry partner): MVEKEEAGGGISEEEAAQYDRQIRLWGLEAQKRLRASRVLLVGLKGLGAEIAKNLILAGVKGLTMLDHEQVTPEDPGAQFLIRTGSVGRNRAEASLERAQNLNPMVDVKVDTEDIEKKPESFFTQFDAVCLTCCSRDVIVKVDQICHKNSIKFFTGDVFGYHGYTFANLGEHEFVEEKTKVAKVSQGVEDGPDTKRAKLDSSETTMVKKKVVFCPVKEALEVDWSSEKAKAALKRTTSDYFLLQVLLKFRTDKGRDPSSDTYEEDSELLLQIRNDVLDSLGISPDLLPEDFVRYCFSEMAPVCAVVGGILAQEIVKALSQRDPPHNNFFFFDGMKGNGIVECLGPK

| Compound | inhibition at 0.111 µM | IC50 | Percent Inhibition |
| --- | --- | --- | --- |
| NS(=O)(=O)OC[C@H]1C[C@@H](Nc2ncncc2C(=O)c2cc(Cc3ccc(F)c(Cl)c3)cs2)C[C@@H]1O [I-61, {(1R,2S,4R)-4-[(5-{[4-(3-chloro-4-fluorobenzyl)-2-thienyl]carbonyl}pyrimidin-4-yl)amino]-2-hydroxycyclopentyl}methyl sulfamate] | 98% | < 10 nM |  |
| NS(=O)(=O)OC[C@H]1C[C@@H](Nc2ncncc2C(=O)c2cc(Cc3cccc(I)c3)cs2)C[C@@H]1O [I-62, {(1R,2S,4R)-2-hydroxy-4-[(5-{[4-(3-iodobenzyl)-2-thienyl]carbonyl}pyrimidin-4-yl)amino]cyclopentyl}methyl sulfamate] | 98% |  |  |
| Cc1oc(C(=O)c2cncnc2N[C@@H]2C[C@H](COS(N)(=O)=O)[C@@H](O)[C@@H]2F)cc1Cc1cccc(Br)c1 [I-64, [(1R,2R,3R,4R)-4-({5-[4-(3-bromobenzyl)-5-methyl-2-furoyl]pyrimidin-4-yl}amino)-3-fluoro-2-hydroxycyclopentyl]methyl sulfamate] | 99% | < 10 nM |  |
| Cc1cccc(Cc2cc(C(=O)c3cncnc3N[C@@H]3C[C@H](COS(N)(=O)=O)[C@@H](O)[C@@H]3F)oc2C)c1 [I-65, [(1R,2R,3R,4R)-3-fluoro-2-hydroxy-4-({5-[5-methyl-4-(3-methylbenzyl)-2-furoyl]pyrimidin-4-yl}amino)cyclopentyl]methyl sulfamate] | 99% | < 10 nM |  |
| NS(=O)(=O)OC[C@H]1C[C@@H](Nc2ncncc2C(=O)c2cc(Cc3ccc(Cl)o3)cs2)C[C@@H]1O [I-66, [(1R,2S,4R)-4-{[5-({4-[(5-chloro-2-furyl)methyl]-2-thienyl}carbonyl)pyrimidin-4-yl]amino}-2-hydroxycyclopentyl]methyl sulfamate] | 98% | < 10 nM |  |
| C#Cc1cccc(Cc2csc(C(=O)c3cncnc3N[C@@H]3C[C@H](COS(N)(=O)=O)[C@@H](O)C3)c2)c1 [I-70, {(1R,2S,4R)-4-[(5-{[4-(3-Ethynylbenzyl)-2-thenyl]carbonyl}pyrimidin-4-yl)amino-2-hydroxycyclopentyl}methyl sulfamate] |  | < 10 nM | 98 |
| NS(=O)(=O)OC[C@H]1C[C@@H](Nc2ncncc2C(=O)c2cc(Cc3cccc(Cl)n3)cs2)C[C@@H]1O [I-71, [(1R,2S,4R)-4-{[5-({4-[(6-chloropyridin-2-yl)methyl]-2-thienyl}carbonyl)pyrimidin-4-yl]amino}-2-hydroxycyclopentyl]methyl sulfamate] | 98% |  |  |
| NS(=O)(=O)OC[C@H]1C[C@@H](Nc2ncncc2C(=O)c2cc(Cc3cccc(Cl)c3)c(Cl)o2)C[C@@H]1O [I-72, [(1R,2S,4R)-4-({5-[5-chloro-4-(3-chlorobenzyl)-2-furoyl]pyrimidin-4-yl}amino)-2-hydroxycyclopentyl]methyl sulfamate] | 98% | < 10 nM |  |
| Cc1cnn(Cc2csc(C(=O)c3cncnc3N[C@@H]3C[C@H](COS(N)(=O)=O)[C@@H](O)C3)c2)c1 [I-74, [(1R,2S,4R)-2-hydroxy-4-{[5-({4-[(4-methyl-1H-pyrazol-1-yl)methyl]-2-thienyl}carbonyl)pyrimidin-4-yl]amino}cyclopentyl]methyl sulfamate] | 98% | < 10 nM |  |
| Cc1oc(C(=O)c2cncnc2N[C@@H]2C[C@H](COS(N)(=O)=O)[C@@H](O)[C@@H]2F)cc1Cc1cccc(Cl)c1 [I-75, [(1R,2R,3R,4R)-4-({5-[4-(3-chlorobenzyl)-5-methyl-2-furoyl]pyrimidin-4-yl}amino)-3-fluoro-2-hydroxycyclopentyl]methyl sulfamate] | 98% | < 10 nM |  |
| NS(=O)(=O)OC[C@H]1C[C@@H](Nc2ncncc2C(=O)c2cc(Cc3cccc(Br)c3)c(Cl)s2)[C@H](O)[C@@H]1O [I-76, {(1R,2R,3S,4R)-4-[(5-{[4-(3-bromobenzyl)-5-chloro-2-thienyl]carbonyl}pyrimidin-4-yl)amino]-2,3-dihydroxycyclopentyl}methyl sulfamate] | 99% | < 10 nM |  |
| CN(C)Cc1sc(C(=O)c2cncnc2N[C@@H]2C[C@H](COS(N)(=O)=O)[C@@H](O)C2)cc1Cc1cccc(Cl)c1 [I-77, [(1R,2S,4R)-4-{[5-({4-(3-chlorobenzyl)-5-[(dimethylamino)methyl]-2-thienyl}carbonyl)pyrimidin-4-yl]amino}-2-hydroxycyclopentyl]methyl sulfamate] | 98% | < 10 nM |  |
| Cc1cnn(Cc2cc(C(=O)c3cncnc3N[C@@H]3C[C@H](COS(N)(=O)=O)[C@@H](O)C3)sc2C)c1 [I-78, [(1R,2S,4R)-2-hydroxy-4-{[5-({5-methyl-4-[(4-methyl-1H-pyrazol-1-yl)methyl]-2-thienyl}carbonyl)pyrimidin-4-yl]amino}cyclopentyl]methyl sulfamate] | 98% |  |  |
| NS(=O)(=O)OC[C@H]1C[C@@H](Nc2ncncc2C(=O)c2cc(Cc3cccc(Cl)c3)co2)C[C@@H]1O [I-79, [(1R,2S,4R)-4-({5-[4-(3-chlorobenzyl)-2-furoyl]pyrimidin-4-yl}amino)-2-hydroxycyclopentyl]methyl sulfamate] | 97% |  |  |
| COc1ccccc1OCc1csc(C(=O)c2cncnc2N[C@@H]2C[C@H](COS(N)(=O)=O)[C@@H](O)C2)c1 [I-80, [(1R,2S,4R)-2-hydroxy-4-{[5-({4-[(2-methoxyphenoxy)methyl]-2-thienyl}carbonyl)pyrimidin-4-yl]amino}cyclopentyl]methyl sulfamate] | 98% | < 10 nM |  |
| CSc1cccc(Cc2csc(C(=O)c3cncnc3N[C@@H]3C[C@H](COS(N)(=O)=O)[C@@H](O)C3)c2)c1 [I-81, [(1R,2S,4R)-2-hydroxy-4-{[5-({4-[3-(methylsulfanyl)benzyl]-2-thienyl}carbonyl)pyrimidin-4-yl]amino}cyclopentyl]methyl sulfamate] | 98% | < 10 nM |  |
| NS(=O)(=O)OC[C@H]1C[C@@H](Nc2ncncc2C(=O)c2ccc(Cc3cccc(Br)c3)o2)C[C@@H]1O [I-82, [(1R,2S,4R)-4-({5-[5-(3-bromobenzyl)-2-furoyl]pyrimidin-4-yl}amino)-2-hydroxycyclopentyl]methyl sulfamate] | 99% |  |  |
| NS(=O)(=O)OC[C@H]1C[C@@H](Nc2ncncc2C(=O)c2cc(CN3CCc4ccc(Cl)cc43)cs2)C[C@@H]1O [I-83, [(1R,2S,4R)-4-{[5-({4-[(6-chloro-2,3-dihydro-1H-indol-1-yl)methyl]-2-thienyl}carbonyl)pyrimidin-4-yl]amino}-2-hydroxycyclopentyl]methyl sulfamate] | 98% | < 10 nM |  |
| NS(=O)(=O)OC[C@H]1C[C@@H](Nc2ncncc2C(=O)c2cc(Cc3cccc(Cl)c3F)cs2)C[C@@H]1O [I-84, {(1R,2S,4R)-4-[(5-{[4-(3-chloro-2-fluorobenzyl)-2-thienyl]carbonyl}pyrimidin-4-yl)amino]-2-hydroxycyclopentyl}methyl sulfamate] | 98% | < 10 nM |  |
| NS(=O)(=O)OC[C@H]1C[C@@H](Nc2ncncc2C(=O)c2ccc(Cc3ccccc3)o2)[C@H](O)[C@@H]1O [I-87, [(1R,2R,3S,4R)-4-{[5-(5-benzyl-2-furoyl)pyrimidin-4-yl]amino}-2,3-dihydroxycyclopentyl]methyl sulfamate] | 94% |  |  |
| NS(=O)(=O)OC[C@H]1C[C@@H](Nc2ncncc2C(=O)c2cc(Cc3ccccc3)cs2)C[C@@H]1O [I-88, [(1R,2S,4R)-4-({5-[(4-benzyl-2-thienyl)carbonyl]pyrimidin-4-yl}amino)-2-hydroxycyclopentyl]methyl sulfamate] | 98% | < 10 nM |  |
| NS(=O)(=O)OC[C@H]1C[C@@H](Nc2ncncc2C(=O)c2cc(Cc3cccc(Cl)c3)c(F)s2)C[C@@H]1O [I-89, {(1R,2S,4R)-4-[(5-{[4-(3-chlorobenzyl)-5-fluoro-2-thienyl]carbonyl}pyrimidin-4-yl)amino]-2-hydroxycyclopentyl}methyl sulfamate] | 98% | < 10 nM |  |
| NS(=O)(=O)OC[C@H]1C[C@@H](Nc2ncncc2C(=O)c2cc(Cn3ccc4cccnc43)cs2)C[C@@H]1O [I-92, {(1R,2S,4R)-2-hydroxy-4-[(5-{[4-(1H-pyrrolo[2,3-b]pyridin-1-ylmethyl)-2-thienyl]carbonyl}pyrimidin-4-yl)amino]cyclopentyl}methyl sulfamate] | 98% | < 10 nM |  |
| NS(=O)(=O)OC[C@H]1C[C@@H](Nc2ncncc2C(=O)c2ccc(Cc3cccc(Cl)c3)o2)C[C@@H]1O [I-93, [(1R,2S,4R)-4-({5-[5-(3-chlorobenzyl)-2-furoyl]pyrimidin-4-yl}amino)-2-hydroxycyclopentyl]methyl sulfamate] | 98% |  |  |
| NS(=O)(=O)OC[C@H]1C[C@@H](Nc2ncncc2C(=O)c2cc([S@+]([O-])c3cccc(Cl)c3)c(Cl)s2)C[C@@H]1O [I-94, [(1R,2S,4R)-4-({[5-({5-Chloro-4-[(R)-(3-chlorophenyl)sulfinyl]-2-thienyl}carbonyl)pyrimidin-4-yl]amino}-2-hydroxycyclopentyl]methyl sulfamate and [(1R,2S,4R)-4-{[5-({5-chloro-4-[(S)-(3-chlorophenyl)sulfinyl]-2-thienyl}carbonyl)pyrimidin-4-yl]amino}-2-hydroxycyclopentyl]methyl sulfamate] |  | < 10 nM | 98 |
| NS(=O)(=O)OC[C@H]1C[C@@H](Nc2ncncc2C(=O)c2cc(Cc3ccccc3)c(Cl)s2)C[C@@H]1O [I-96, [(1R,2S,4R)-4-({5-[(4-benzyl-5-chloro-2-thienyl)carbonyl]pyrimidin-4-yl}amino)-2-hydroxycyclopentyl]methyl sulfamate] | 97% |  |  |
| NS(=O)(=O)OC[C@H]1C[C@@H](Nc2ncncc2C(=O)c2cc(Cc3cccc(F)c3)cs2)C[C@@H]1O [I-97, {(1R,2S,4R)-4-[(5-{[4-(3-fluorobenzyl)-2-thienyl]carbonyl}pyrimidin-4-yl)amino]-2-hydroxycyclopentyl}methyl sulfamate] | 97% |  |  |
